Test results reported in patent US8609660B2, “4,7-dihydro-pyrazolo[1,5-a]pyrazin-6-ylamine derivatives useful as inhibitors of beta-secretase (BACE)” (Janssen Pharmaceutica NV, priority 2010, dated 2013).

Tests used:
[1] = system: Aβ42 produced and secreted into the medium of human neuroblastoma SKNBE2 cells; experiment: Cellular αlisa assay in SKNBE2 cells, Aβ42; format: cell-based; conditions: SKNBE2 cells expressing hAPP695, 18 hours incubation; for IC50: Homo sapiens, SKNBE2, 18 h, read-out: Cellular αlisa assay in SKNBE2 cells Aβ42 pIC50 (converted)
Experimental: (§1) Cellular αlisa Assay in SKNBE2 Cells In two αlisa assays the levels of Aβtotal and Aβ42 produced and secreted into the medium of human neuroblastoma SKNBE2 cells are quantified. The assay is based on the human neuroblastoma SKNBE2 expressing the wild type Amyloid Precursor Protein (hAPP695). […] Aβtotal and Aβ42 are measured by sandwich α[…] sandwich assay using biotinylated antibody AbN/25 attached to streptavidin coated beads and antibody Ab4G8 or cAb42/26 conjugated acceptor beads for the detection of Aβtotal and Aβ42 respectively. In the presence of Aβtotal or Aβ42, the beads come into close proximity. The excitation of the Donor beads provokes the release of singlet oxygen molecules that triggers a cascade of energy transfer in the Acceptor beads, resulting in light emission. Light emission is measured after 1 hour incubation (excitation at […] and emission at 615 nm). A best-fit curve is fitted by a minimum sum of squares method to the plot of % Controlmin versus compound concentration. […] [formula]

[2] = system: Aβtotal produced and secreted into the medium of human neuroblastoma SKNBE2 cells; experiment: Cellular αlisa assay in SKNBE2 cells, Aβtotal; format: cell-based; conditions: SKNBE2 cells expressing hAPP695, 18 hours incubation; for IC50: Homo sapiens, SKNBE2, 18 h, read-out: Cellular αlisa assay in SKNBE2 cells Aβtotal pIC50 (converted)
Experimental: as §1

[3] = biological target: T1, recombinant BACE1 protein (Homo sapiens, UniProt P56817); experiment: Biochemical FRET based assay; conditions: recombinant BACE1 1 μg/ml, 120 min, room temperature, pH 5.0; for IC50: read-out: Biochemical FRET based assay pIC50 (converted)
T1 construct: recombinant BACE1 protein in a final concentration of 1 μg/ml
T1 sequence (P56817 46-501): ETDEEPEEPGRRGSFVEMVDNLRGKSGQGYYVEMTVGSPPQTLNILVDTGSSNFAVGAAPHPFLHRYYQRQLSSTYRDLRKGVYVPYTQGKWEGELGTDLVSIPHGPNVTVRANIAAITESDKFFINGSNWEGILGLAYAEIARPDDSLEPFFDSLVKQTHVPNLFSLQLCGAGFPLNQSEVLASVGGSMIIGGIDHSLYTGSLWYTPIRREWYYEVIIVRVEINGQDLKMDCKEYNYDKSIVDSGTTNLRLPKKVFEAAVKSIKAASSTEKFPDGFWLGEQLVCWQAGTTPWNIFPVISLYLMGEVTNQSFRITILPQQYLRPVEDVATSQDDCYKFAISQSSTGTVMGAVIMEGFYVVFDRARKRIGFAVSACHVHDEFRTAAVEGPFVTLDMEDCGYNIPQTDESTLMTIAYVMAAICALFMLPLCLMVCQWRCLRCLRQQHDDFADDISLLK
Source text: Biochemical FRET Based Assay This assay is a Fluorescence Resonance Energy Transfer Assay (FRET) based assay. The substrate for this assay is an APP derived 13 amino acids peptide that contains the 'Swedish' […] mutation of the amyloid precursor protein (APP) β-secretase cleavage site. […] Upon cleavage by BACE1, the fluorophore Mca is separated from the quenching group Dnp, restoring the full fluorescence yield of the donor. The increase in fluorescence is linearly related to the rate of proteolysis (Koike H et al. J Biochem. 1999, 126, 235-42). Briefly in a 384-well format recombinant BACE1 protein in a final concentration of 1 μg/ml is incubated for 120 minutes at room temperature with 10 μm substrate in incubation buffer (40 mM Citrate buffer pH 5.0, 0.04% PEG, 4% DMSO) in the absence or presence of compound. Next the amount of proteolysis is directly measured by fluorescence measurement at T=0 and T=120 (excitation at 320 nm and emission at 405 nm). […] [formula]

Structure (SMILES)	Cellular αlisa assay in SKNBE2 cells Aβ42 pIC50 [1]	Cellular αlisa assay in SKNBE2 cells Aβtotal pIC50 [2]	Biochemical FRET based assay pIC50 [3]	IC50 [3] [nM]	IC50 [1] [nM]	IC50 [2] [nM]
COc1cncc(-c2cccc(C3(C)N=C(N)Cn4nc(C(F)(F)F)cc43)c2)c1 (single isomer, unassigned) [Compound 22, (R*)-4-[3-(5-methoxypyridin-3-yl)-phenyl]-4-methyl-2-(trifluoromethyl)-4,7-dihydropyrazolo[1,5-a]pyrazin-6-amine]	6.13	6.18	–	603	–	–
CC1(c2cc(-c3cc(Cl)cc(Cl)c3)ccc2F)N=C(N)Cn2nccc21 (racemic) [Compound 15]	5.48	5.52	5.68	–	–	–
CC1(c2cc(NC(=O)c3ccc(Cl)cn3)ccc2F)N=C(N)Cn2nccc21 (racemic) [Compound 13]	7.72	7.73	6.84	–	–	–
CC1(c2cc(-c3cncc(Cl)c3)ccc2F)N=C(N)Cn2nc(C(F)(F)F)cc21 (single isomer, unassigned) [Compound 26, (S*)-4-[5-(5-chloropyridin-3-yl)-2-fluorophenyl]-4-methyl-2-(trifluoromethyl)-4,7-dihydropyrazolo[1,5-a]pyrazin-6-amine]	<5	<5	–	> 30200	–	–
CC1(c2cc(NC(=O)c3ncc(Cl)cc3Cl)ccc2F)N=C(N)Cn2nc(C(F)(F)F)cc21 (single isomer, unassigned) [Compound 29, (S*)—N-{3-[6-amino-4-methyl-2-(trifluoromethyl)-4,7-dihydropyrazolo[1,5-a]pyrazin-4-yl]-4-fluorophenyl}-3,5-dichloropyridine-2-carboxamide]	<5	<5	–	15500	–	–
CC1(c2cc(NC(=O)c3ncc(Cl)cc3Cl)ccc2F)N=C(N)Cn2nc(C(F)(F)F)cc21 (stereo not drawn) [Compound 27, rac-N-{3-[6-amino-4-methyl-2-(trifluoromethyl)-4,7-dihydropyrazolo[1,5-a]pyrazin-4-yl]-4-fluorophenyl}-3,5-dichloropyridine-2-carboxamide]	–	–	–	145	170	170
COc1cnc(C(=O)Nc2ccc(F)c(C3(C)N=C(N)Cn4nc(C(F)(F)F)cc43)c2)cn1 (single isomer, unassigned) [Compound 31]	6.92	6.99	6.73	–	–	–

Results, then the molecule that gave them:

Cellular αlisa assay in SKNBE2 cells Aβ42 pIC50 [1]	Cellular αlisa assay in SKNBE2 cells Aβtotal pIC50 [2]	Biochemical FRET based assay pIC50 [3]	IC50 [3] [nM]	IC50 [1] [nM]	IC50 [2] [nM]	Structure (SMILES)
6.61	6.54	5.65	–	–	–	CC1(c2cccc(-c3cncnc3)c2)N=C(N)Cn2nccc21 (stereo not shown) [Compound 8]
6.09	6.11	6.11	–	–	–	CC1(c2cccc(-c3cc(F)cc(F)c3)c2)N=C(N)Cn2nccc21 (stereo not shown) [Compound 14]
6.06	6.13	5.53	–	–	–	COc1cccc(-c2cc(C3(C)N=C(N)Cn4nccc43)c(F)cc2F)c1 (racemic) [Compound 6]
8.09	8.08	–	–	–	–	CC1(c2cccc(NC(=O)c3ccc(Cl)cn3)c2)N=C(N)Cn2nccc21 (stereo not shown) [Compound 17]
–	–	–	–	10.7	11.7	CC1(c2cccc(NC(=O)c3ccc(Cl)cn3)c2)N=C(N)Cn2nccc21 (racemic) [Compound 3, rac-N-[3-(6-amino-4-methyl-4,7-dihydropyrazolo[1,5-a]pyrazin-4-yl)-phenyl]-5-chloropyridine-2-carboxamide]
